42 compounds from the Deep4Chem optical property database can be followed below.

This data set can be described thus: solvent given as SMILES.

The compound `CCOC(=O)c1c(-c2cc3ccc(OC)cc3oc2=O)nn(-c2ccccc2)c1C(=O)OCC` had an emission maximum (in ClCCl) of 421 nm.
For `C(=C\c1ccc(N(c2ccc(/C=C/c3ccc(N(c4ccccc4)c4ccccc4)cc3)cc2)c2ccc(-c3nc4ccccc4nc3-c3ccc(N(c4ccc(/C=C/c5ccc(N(c6ccccc6)c6ccccc6)cc5)cc4)c4ccc(/C=C/c5ccc(N(c6ccccc6)c6ccccc6)cc5)cc4)cc3)cc2)cc1)/c1ccc(N(c2ccccc2)c2ccccc2)cc1`, the emission maximum is, setting by setting: (in C1CCOC1) 532 nm; (in Cc1ccccc1) 521 nm.
Consider `COC(=O)c1ccc(-c2ccc3c(c2)C(=O)c2cc(-c4ccc(C(=O)OC)cc4)ccc2-3)cc1`, for which the emission maximum (in C1CCOC1) turned out to be 366 nm.
Compound `Cc1cc(C)c(C)c(-c2cc(-c3c(C)c(C)cc(C)c3C)c3ccc4c(-c5c(C)c(C)cc(C)c5C)cc(-c5c(C)c(C)cc(C)c5C)c5ccc2c3c54)c1C` gave an emission maximum (in ClCCl) of 412 nm.
For `Cc1ccc(N/C=C/C=[NH+]c2ccc(C)cc2)cc1`, the emission maximum (in CS(C)=O) turned out to be 491 nm.
`CN(C)c1ccc(/C=C/c2cc(/C=C/c3ccc(N(C)C)cc3)nc(/C=C/c3ccccc3)n2)cc1`: the emission maximum amounted to 526 nm (in C1CCOC1); 587 nm (in CC#N); 563 nm (in CC(C)=O); 453 nm (in CCCCCCC); 601 nm (in CS(C)=O); 483 nm (in Cc1ccccc1). Further, under “in ClCCl”, the emission maximum stood at 537 nm.
In turn, `c1cc2c3c(c1)OCCCCCCCOc1cccc(c1-c1c4ccccc4c-3c3ccccc13)OCCCCCCCO2` registered an emission maximum (in C1CCCCC1) of 427 nm.
Consider `CCOC(=O)c1[nH]c(C)c(/C=C/C2=[N+]3C(=C(c4cc(OC)cc(OC)c4)c4c(C)c(I)c(/C=C/c5c(C)[nH]c(C(=O)OCC)c5C)n4[B-]3(F)F)C(C)=C2I)c1C`, for which the emission maximum was 713 nm (in C1CCOC1), 731 nm (in CS(C)=O) and 710 nm (in ClCCl).
In the case of `COc1ccc(-c2ccc(-c3c4c(nc5ccccc35)-c3cc5c(cc3CC4)-c3nc4ccccc4c(-c4ccc(-c6ccc(OC)cc6)cc4)c3CC5)cc2)cc1`, where the note is “in ClC(Cl)Cl”, the emission maximum is 388 nm.
With `COC(=O)C1CCN(c2ccc3c(N4CCCCC4)c4ccc(=[N+]5CCC(C(=O)OC)CC5)cc-4oc3c2)CC1` (configuration not stated), for the setting “in ClCCl”, the emission maximum amounted to 552 nm.
`N#Cc1ccc(/C=C/c2ncc(-c3ccccc3)o2)cc1` registered an emission maximum (in ClCCl) of 450 nm.
On to `CCC(C)(C)c1ccc(-c2ccc3c(c2)C(CCOC)(CCOC)c2cc4c(cc2-3)C(CCOC)(CCOC)c2cc(-c3ccc(C(C)(C)CC)cc3)ccc2-4)cc1`, for which the emission maximum (in C1CCCCC1) stood at 390 nm.
In the case of `C#CCOc1ccc(/C=C/C2=[N+]3C(=C(c4ccc(N(CC)CC)cc4)c4c(C)cc(/C=C/c5ccc(OCC(=O)OC)cc5)n4[B-]3(F)F)C(C)=C2)cc1`, the emission maximum (in CO) came to 655 nm.
Take `CN(C)c1ccc(/C=C/C=C/c2ccc(C#N)cc2)cc1`: the emission maximum is, setting by setting: (in CC#N) 589 nm; (in CCCC#N) 579 nm; (in CCCCCC) 440 nm; (in CCOCC) 509 nm.
As for `CCCN1c2ccccc2Sc2cc(/C=C\c3cc(=O)oc4ccccc34)ccc21`, the emission maximum (in ClC(Cl)Cl) is reported as 618 nm.
Turning to `COC(=O)COc1ccc(/C=C/C2=[N+]3C(=C(c4ccc(N(C)C)cc4)c4c(C)cc(C)n4[B-]3(F)F)C(C)=C2)cc1`, the emission maximum (in CO) is recorded as 580 nm.
In the case of `CSc1sc(C(=O)c2ccccc2)c2nn[nH]c(=O)c12`, the emission maximum is 482 nm (in C1CCOC1); 485 nm (in CC#N); 489 nm (in CCO); 492 nm (in CN(C)C=O); 495 nm (in CO); 497 nm (in CS(C)=O).
Consider `N#Cc1cnc(-c2c3ccccc3c(-c3ccccc3)c3ccccc23)nc1`, for which the emission maximum runs as follows: (in CCO) 520 nm; (in ClCCl) 504 nm.
As for `CC1(C)Oc2c(c3nc4ccccc4nc3c3ccccc23)CC1Br` (configuration not stated), the emission maximum by setting is: (in C1CCCCC1) 431.03 nm; (in C1CCOC1) 448.83 nm; (in C1COCCO1) 449.44 nm; (in CC#N) 457.04 nm; (in CC(C)O) 464.25 nm; (in CCCCCC) 430.66 nm. For the same compound, the emission maximum is 458.3 nm (in CN(C)C=O), 475.96 nm (in CO) and 444.25 nm (in c1ccccc1).
`Cc1cc(C)c(C2=C(c3c(C)sc(-c4ccc(-c5nc(-c6ccccc6)c(-c6ccccc6)[nH]5)cc4)c3C)C(F)(F)C(F)(F)C2(F)F)s1` registered an emission maximum (in C1CCOC1) of 393 nm.
`COc1ccc(-c2nc(-c3ccc(OC)cc3)c(-c3ccc(OC)cc3)[nH]2)cc1` had an emission maximum (in CO) of 389 nm.
`Cc1ccc(C2C3=C(CCCC3=O)Nc3c2c(=O)oc2ccccc32)cc1` (configuration not stated) displayed an emission maximum (in CS(C)=O) of 441 nm.
`CCN(CC)c1ccc2cc(-c3ccc(-c4ccc5ccc6c(-c7ccc(-c8cc9ccc(N(CC)CC)cc9oc8=O)cc7)ccc7ccc4c5c76)cc3)c(=O)oc2c1`: where the note is “in ClC(Cl)Cl”, the emission maximum was found to be 475 nm.
Under “in CCO”, `CC(C)=CCN1C(=O)c2cccc3c2c(cc2nc(C)oc23)C1=O` gave an emission maximum of 412 nm.
`CCCCC#Cc1cccc2cc(CCCC)c3cc(-c4cc[b-]5c(c4)c(CCCC)cc4cccc(C#CCCCC)[n+]54)cc[b-]3[n+]12`: the emission maximum (in C1CCCCC1) is on record as 598 nm.
With `CC[n+]1c(-c2ccccc2)c2cc(-n3cccc3)ccc2c2ccc(N)cc21`, the emission maximum (in O) is 603 nm.
Regarding `CC(C)c1cc(C(C)C)c(-c2nnc(-c3ccc(-n4c5ccccc5c5ccccc54)cc3)o2)c(C(C)C)c1`, the emission maximum (in CCO) was 435 nm and the emission maximum (in Cc1ccccc1) was 377 nm.
`O=C1c2ccc3c4ccc5c6c(ccc(c7ccc(c2c37)C(=O)N1c1ccc(Cl)cc1)c64)C(=O)N(c1ccc(Cl)cc1)C5=O` had an emission maximum (in CN(C)C=O) of 534 nm.
`CC(C)(C)c1ccc2c(c1)c1cc(C(C)(C)C)ccc1n2-c1ccc(C#Cc2ccc3c4ccc(C#Cc5ccc(-n6c7ccc(C(C)(C)C)cc7c7cc(C(C)(C)C)ccc76)cc5)cc4n(-c4ccc(C(F)(F)F)cc4)c3c2)cc1` returned an emission maximum (in ClCCl) of 431 nm.
Regarding `COc1ccc(-n2c3ccccc3c3cc(C=C(C#N)C#N)ccc32)cc1`, the emission maximum runs as follows: (in C1CCOC1) 499 nm; (in CC#N) 536 nm; (in CC(C)=O) 525 nm; (in CCOC(C)=O) 495 nm; (in CO) 534 nm; (in CS(C)=O) 547 nm. For the same compound, the emission maximum is, setting by setting: (in Cc1ccccc1) 450 nm; (in ClC(Cl)Cl) 511 nm.
Under “in CC#N”, `C[n+]1ccn(CCCCc2ccc3c(c2)c2ccccc2n3-c2cc(C#N)c(C#N)cc2F)c1` showed an emission maximum of 558 nm.
As to `COc1ccc(C2=CC(c3ccccc3)=[N+]3C2=Nc2c(-c4ccc(OC)cc4)cc(-c4ccccc4)n2[B-]3(F)F)cc1`, the emission maximum is, setting by setting: (in Cc1ccccc1) 697 nm; (in ClC(Cl)Cl) 695 nm.
In the case of `BrC1=CN2C[n+]3cc(Br)cc(Br)c3N=C2C(Br)=C1`, the emission maximum (in CS(C)=O) is recorded as 494 nm.
Turning to `c1ccc(-c2nn(-c3ccccc3)c3nc4ccccc4cc23)cc1`, the emission maximum turned out to be 443.66 nm (in C1CCCCC1); 467.73 nm (in C1CCOC1); 478.01 nm (in CC#N); 472.59 nm (in CC(C)=O); 462.96 nm (in CCCCCl); 454.96 nm (in CCCCOCCCC). The compound further came in with an emission maximum (in CN(C)C=O) of 476.64 nm.
Regarding `COc1ccc(-c2nc3c(c4c2-c2ccc(C#N)cc2CC4)-c2ccc(C#N)cc2CC3)cc1`, the emission maximum by setting is: (in C1CCOC1) 426 nm; (in CC#N) 430 nm; (in CCCCCC) 420 nm; (in CCOC(C)=O) 423 nm; (in CO) 426 nm; (in CS(C)=O) 435 nm. For the same compound, the emission maximum runs as follows: (in Cc1ccccc1) 422 nm; (in ClCCl) 425 nm.
`c1ccc(-c2nc(-c3ccccc3)nc(-c3ccc(-c4ccc5c(c4)[Si](c4ccccc4)(c4ccccc4)c4cc(-c6ccc(-c7nc(-c8ccccc8)nc(-c8ccccc8)n7)cc6)ccc4N5c4ccccc4)cc3)n2)cc1`: the emission maximum (in c1cc(-c2cccc(-n3c4ccccc4c4ccccc43)c2)cc(-n2c3ccccc3c3ccccc32)c1) is 459 nm.
For `CC(C)(C)c1ccc2c(c1)c1cc(C(C)(C)C)ccc1n2-c1ccc(-c2ccc3c(c2)C(=O)c2ccc(-c4ccc(-n5c6ccc(C(C)(C)C)cc6c6cc(C(C)(C)C)ccc65)cc4)cc2C3=O)cc1`, the emission maximum was determined as 558 nm (in Cc1ccccc1) and 550 nm (in c1ccc2c(c1)c1ccccc1n2-c1ccc(-c2ccc(-n3c4ccccc4c4ccccc43)cc2)cc1).
Take `CCOC(=O)/C(C#N)=C\c1cn(-c2ccccc2)nc1-c1ccccc1`: the emission maximum turned out to be 429 nm (in C1CCOC1); 408 nm (in C1COCCO1); 423 nm (in CCO); 427 nm (in CCOC(C)=O); 434 nm (in CN(C)C=O); 434 nm (in CO). For the same compound, the emission maximum was 440 nm (in CS(C)=O), 407 nm (in Cc1ccccc1), 431 nm (in ClC(Cl)Cl) and 428 nm (in ClCCl).
As for `C[n+]1ccc(/C=C/c2ccc(N(c3ccccc3)c3ccc(/C=C/c4cc[n+](C)cc4)cc3)cc2)cc1`, the emission maximum runs as follows: (in ClCCl) 502 nm; (in O) 656 nm; (in OCC(O)CO) 649 nm.
Turning to `C=CCOc1ccc(-c2nc3cc(C(NC(=O)OC(C)(C)C)C(=O)OC)ccc3o2)cc1` (configuration not stated), the emission maximum (in CC1CCCCC1) is listed as 329 nm, the emission maximum (in CC#N) is 333 nm and the emission maximum (in CO) is 353 nm.
For the compound `Cc1ccc(-c2cc(C)[o+]c(C)c2)cc1`, the emission maximum is, setting by setting: (in CC#N) 435 nm; (in ClCCl) 417 nm.
As to `CCCCCCCCn1nnc(-c2ccc(C#Cc3ccc(C#Cc4ccc(-c5nnn(CCCCCCCC)n5)cc4)c4nc5c6ccccc6c6ccccc6c5nc34)cc2)n1`, the emission maximum by setting is: (in C1CCOC1) 495 nm; (in Cc1ccccc1) 488 nm; (in ClCCl) 502 nm.
